This note sets out measurements from paper PMC9851200, “Multiparameter phenotypic screening for endogenous TFEB and TFE3 translocation identifies novel chemical series modulating lysosome function” (Autophagy, 2022).

The target in experiment [1] is T1, kinases (KINOMEscan panel) (Homo sapiens, UniProt P35626).
T1 sequence (P35626 1-688): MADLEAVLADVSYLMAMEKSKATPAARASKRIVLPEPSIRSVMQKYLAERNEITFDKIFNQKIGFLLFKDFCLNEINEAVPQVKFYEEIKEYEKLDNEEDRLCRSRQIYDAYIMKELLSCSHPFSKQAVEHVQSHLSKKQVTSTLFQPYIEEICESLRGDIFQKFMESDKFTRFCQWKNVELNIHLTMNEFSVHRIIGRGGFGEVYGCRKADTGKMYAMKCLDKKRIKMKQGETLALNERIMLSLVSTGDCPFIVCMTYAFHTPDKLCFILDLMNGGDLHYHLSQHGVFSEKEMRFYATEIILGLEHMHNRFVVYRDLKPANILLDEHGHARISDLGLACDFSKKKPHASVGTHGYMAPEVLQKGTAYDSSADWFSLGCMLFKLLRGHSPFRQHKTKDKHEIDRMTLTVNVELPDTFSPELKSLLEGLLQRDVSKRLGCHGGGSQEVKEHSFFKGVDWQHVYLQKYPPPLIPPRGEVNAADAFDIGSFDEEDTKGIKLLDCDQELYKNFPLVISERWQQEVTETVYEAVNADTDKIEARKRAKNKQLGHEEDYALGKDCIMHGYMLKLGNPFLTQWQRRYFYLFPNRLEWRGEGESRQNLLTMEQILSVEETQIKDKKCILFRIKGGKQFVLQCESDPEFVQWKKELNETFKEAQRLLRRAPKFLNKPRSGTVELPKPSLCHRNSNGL
The class given is binding. To be noted: GRK3; NEW KINOMEscan.

In experiment [2] the target is T2, kinases (KINOMEscan panel) (Homo sapiens, UniProt Q6ZN16).
T2 sequence (Q6ZN16 1-1313): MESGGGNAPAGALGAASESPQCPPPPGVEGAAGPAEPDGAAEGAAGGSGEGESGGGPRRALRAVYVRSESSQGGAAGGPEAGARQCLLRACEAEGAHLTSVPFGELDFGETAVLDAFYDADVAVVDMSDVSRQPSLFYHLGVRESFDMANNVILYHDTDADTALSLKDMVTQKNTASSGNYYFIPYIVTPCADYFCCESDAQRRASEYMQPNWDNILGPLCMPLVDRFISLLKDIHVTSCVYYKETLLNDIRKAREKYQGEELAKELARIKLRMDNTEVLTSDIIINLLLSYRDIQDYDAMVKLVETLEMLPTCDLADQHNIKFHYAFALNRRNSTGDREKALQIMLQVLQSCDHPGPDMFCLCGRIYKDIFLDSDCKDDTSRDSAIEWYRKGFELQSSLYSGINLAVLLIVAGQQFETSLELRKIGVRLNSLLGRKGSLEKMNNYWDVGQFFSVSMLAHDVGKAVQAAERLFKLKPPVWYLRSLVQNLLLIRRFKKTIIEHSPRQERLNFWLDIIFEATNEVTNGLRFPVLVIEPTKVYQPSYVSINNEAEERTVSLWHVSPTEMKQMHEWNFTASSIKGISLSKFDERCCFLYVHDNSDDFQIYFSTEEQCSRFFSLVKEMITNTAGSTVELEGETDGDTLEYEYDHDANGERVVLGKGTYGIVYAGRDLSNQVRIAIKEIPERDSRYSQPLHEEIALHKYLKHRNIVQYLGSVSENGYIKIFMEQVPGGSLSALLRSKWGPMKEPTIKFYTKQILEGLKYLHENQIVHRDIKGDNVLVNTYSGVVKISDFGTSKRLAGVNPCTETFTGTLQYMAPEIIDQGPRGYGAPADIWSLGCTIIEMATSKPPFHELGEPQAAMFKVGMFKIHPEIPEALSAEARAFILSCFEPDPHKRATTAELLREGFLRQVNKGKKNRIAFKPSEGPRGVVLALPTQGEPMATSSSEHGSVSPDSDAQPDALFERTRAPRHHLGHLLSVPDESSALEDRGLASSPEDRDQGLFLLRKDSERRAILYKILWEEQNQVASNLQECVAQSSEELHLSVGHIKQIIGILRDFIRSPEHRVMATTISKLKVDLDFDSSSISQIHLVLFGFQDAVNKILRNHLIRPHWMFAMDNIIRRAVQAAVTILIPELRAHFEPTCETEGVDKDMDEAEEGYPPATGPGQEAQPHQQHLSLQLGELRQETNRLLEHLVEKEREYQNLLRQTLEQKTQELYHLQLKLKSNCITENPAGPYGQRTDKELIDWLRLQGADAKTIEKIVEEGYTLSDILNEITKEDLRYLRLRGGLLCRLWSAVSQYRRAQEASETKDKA
The class given is binding. To be noted: NEW KINOMEscan.

For the compound `Cc1cccc(-c2nc(Nc3ccc4nn(C)cc4c3)c3ccccc3n2)n1` [NK167], the “KINOMEscan GRK3” value in experiment [1] was 0. In addition, the “KINOMEscan MAP3K15” value in experiment [2] is on record as 21.

Take `Cc1cccc(-c2nc(N(C)c3ccc4ncsc4c3)c3ccccc3n2)n1` [NK-161]: the “KINOMEscan GRK3” value in experiment [1] is reported as 25. In experiment [2], the “KINOMEscan MAP3K15” value was found to be 21.
